Reference: PMC11788587, “Validating Low‐Dose Iohexol as a Marker for Glomerular Filtration Rate by In Vitro and In Vivo Studies” (Clinical and Translational Science, 2025)

Columns and labels:
hMATE2K = molecular target: T1, hMATE2K (Homo sapiens, UniProt Q86VL8); assay: Substrate assessment: iohexol uptake in 293 cells expressing hMATE2K vs control; format: in vitro ADME; settings: 10 μM iohexol, median (95% CI)
T1 construct: expressed in transfected cells; host or cells: HEK-293 (293) cells, pEBTetD plasmid, doxycycline-induced
From the text: (§1) We characterized the inhibitory potential of iohexol on major drug transporters recommended by regulatory agencies, which were previously assessed in a clinical transporter phenotyping cocktail study. These transporters include hOAT1, hOAT3, hOCT1, hOCT2, hMATE1, hMATE2K, human organic anion transporter polypeptides (hOATP)1B1, hOATP1B3, and human multidrug resistance protein (hMDR)1. Additionally, we investigated whether iohexol is a substrate for any of the renal transporters among these, including hOAT1/3, hOCT1/2, and hMATE1/2K. Cell‐based uptake assays were used to assess the activities of hOAT1/3, hOCT1/2, hMATE1/2K, and hOATP1B1/1B3. Inside‐out membrane vesicle uptake assays were used to evaluate the activity of hMDR1.
(§2) For substrate assessments, iohexol was incubated with stably transfected HEK‐293 cells expressing one of the following transporters: hOAT1, hOAT3, hOCT1, hOCT2, hMATE1, or hMATE2K, as well as with control cells lacking transporter expression. Stably transfected cell lines containing pEBTetD plasmids with wild‐type human transporter cDNAs were generated as previously described. Transporter expression was induced by adding 1 μg/mL doxycycline to the growth medium for at least 20 h. Iohexol would be considered a substrate for these transporters if: (1) the ratio of iohexol uptake in cells expressing the transporter to that in control cells was ≥ 2, and (2) a known inhibitor of the transporter reduced iohexol uptake to ≤ 50% at concentrations ≥ 10 times its inhibition constant or half‐maximal inhibitory concentration.
(§3) Uptake assays were performed using stably transfected 293 cells, with or without the expression of one of the following transporters: hOAT1, hOAT3, hOCT1, hOCT2, hMATE1, or hMATE2K, as previously described.^1
(§4) For the substrate assessment, cells were incubated with 10 µM iohexol for 10 minutes and 30 minutes for each transporter. Inhibition assays were performed using specific standard substrates for each transporter: 10 µM para-aminohippuric acid (PAH) for hOAT1, 3 µM estrone-3-sulfate (E3S) for hOAT3, 50 µM metformin for hOCT1, 5 µM metformin for hOCT2, and 3 µM 1-methyl-4-phenylpyridinium (MPP+) for hMATE1 and hMATE2K. […]
(§5) R version 4.2.1 (R Foundation for Statistical Computing, Vienna, Austria) was used for statistical evaluations and data visualization. The data analysis approach for the in vitro study was detailed by Hsin CH et al..^1 In brief, for transport assays, the initial uptake rate was calculated by normalizing the substrate concentration to both the protein concentration and the incubation time for each dish or well. The transporter-mediated uptake rate (net uptake) was determined by performing an element-wise subtraction of uptake rates from different conditions. […]

hMATE1 = molecular target: T2, hMATE1 (Homo sapiens, UniProt Q96FL8); assay: Substrate assessment: iohexol uptake in 293 cells expressing hMATE1 vs control; format: in vitro ADME; settings: 10 μM iohexol, median (95% CI)
T2 construct: expressed in transfected cells; host or cells: HEK-293 (293) cells, pEBTetD plasmid, doxycycline-induced
T2 sequence (Q96FL8 1-570): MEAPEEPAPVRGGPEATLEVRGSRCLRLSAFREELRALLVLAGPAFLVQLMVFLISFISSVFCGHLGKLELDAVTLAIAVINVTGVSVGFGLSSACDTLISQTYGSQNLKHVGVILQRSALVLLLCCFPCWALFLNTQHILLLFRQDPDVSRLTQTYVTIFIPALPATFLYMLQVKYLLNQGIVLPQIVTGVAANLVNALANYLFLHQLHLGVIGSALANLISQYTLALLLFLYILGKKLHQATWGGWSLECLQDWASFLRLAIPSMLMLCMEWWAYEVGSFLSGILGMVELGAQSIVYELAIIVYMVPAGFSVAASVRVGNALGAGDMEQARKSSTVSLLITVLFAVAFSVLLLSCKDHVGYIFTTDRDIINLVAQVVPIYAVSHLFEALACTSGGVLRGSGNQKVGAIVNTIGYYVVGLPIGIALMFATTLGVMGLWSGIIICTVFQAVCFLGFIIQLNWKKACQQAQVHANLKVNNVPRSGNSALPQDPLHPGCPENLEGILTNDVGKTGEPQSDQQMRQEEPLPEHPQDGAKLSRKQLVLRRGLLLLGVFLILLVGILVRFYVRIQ
From the text: as §1, §2, §3, §4, §5

T1 sequence (Q86VL8 1-566 isoform Q86VL8-3): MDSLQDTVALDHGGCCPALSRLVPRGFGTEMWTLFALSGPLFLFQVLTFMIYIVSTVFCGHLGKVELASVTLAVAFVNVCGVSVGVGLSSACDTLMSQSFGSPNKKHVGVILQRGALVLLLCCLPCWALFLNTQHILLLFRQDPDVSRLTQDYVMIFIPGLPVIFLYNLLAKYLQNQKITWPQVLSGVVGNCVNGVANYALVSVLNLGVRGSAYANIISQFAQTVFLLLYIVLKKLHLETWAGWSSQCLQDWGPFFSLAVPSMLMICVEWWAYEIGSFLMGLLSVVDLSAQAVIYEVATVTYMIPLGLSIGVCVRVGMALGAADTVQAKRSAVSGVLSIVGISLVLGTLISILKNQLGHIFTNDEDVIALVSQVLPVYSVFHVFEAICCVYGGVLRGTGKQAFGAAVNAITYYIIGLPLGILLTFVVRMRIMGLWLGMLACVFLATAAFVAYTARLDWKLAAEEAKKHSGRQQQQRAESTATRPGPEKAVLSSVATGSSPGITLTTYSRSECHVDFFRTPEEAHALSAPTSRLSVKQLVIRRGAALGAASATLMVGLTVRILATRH

Differences in intracellular accumulation (expression on minus off) (hMATE2K; 10 minutes): -0.36 (-1.1 to 0.24) pmol/mg protein | Uptake ratio (transporter-expressing vs non-expressing cells) (hMATE2K; 10 minutes): 0.95 (0.81 to 1.1) | Differences in intracellular accumulation (expression on minus off) (hMATE2K; 30 minutes): 0.62 (-0.38 to 1.5) pmol/mg protein | Uptake ratio (transporter-expressing vs non-expressing cells) (hMATE2K; 30 minutes): 1.1 (0.93 to 1.4) | Differences in intracellular accumulation (expression on minus off) (hMATE1; 10 minutes): 0.36 (-1.2 to 1.7) pmol/mg protein | Uptake ratio (transporter-expressing vs non-expressing cells) (hMATE1; 10 minutes): 1.1 (0.84 to 1.2) | Differences in intracellular accumulation (expression on minus off) (hMATE1; 30 minutes): -0.67 (-1.6 to 0.61) pmol/mg protein | Uptake ratio (transporter-expressing vs non-expressing cells) (hMATE1; 30 minutes): 0.92 (0.78 to 1.1)
SMILES: CC(=O)N(CC(O)CO)c1c(I)c(C(=O)NCC(O)CO)c(I)c(C(=O)NCC(O)CO)c1I (centres unmarked) [iohexol]
